Measurements published in the NIST ThermoML archive (doi:10.1021/je800527p).

Assay: mn = molality of the nth substance listed, in mol/kg
Settings: 101 kPa, Liquid

N[C@@H](CC(=O)NCC(=O)O)C(=O)NCC(=O)O [L-aspartoylbisglycine] + O
Settings	mass density [kg/m3]
288.15 K, m1 = 0.02634	1001.74
288.15 K, m1 = 0.03248	1002.34
288.15 K, m1 = 0.03979	1003.07
288.15 K, m1 = 0.04516	1003.6
288.15 K, m1 = 0.05155	1004.23
288.15 K, m1 = 0.05974	1005.03
288.15 K, m1 = 0.06457	1005.5
288.15 K, m1 = 0.06951	1005.98
298.15 K, m1 = 0.02287	999.295
298.15 K, m1 = 0.02484	999.489
298.15 K, m1 = 0.02795	999.79
298.15 K, m1 = 0.03159	1000.15
298.15 K, m1 = 0.0337	1000.35
298.15 K, m1 = 0.03757	1000.73
298.15 K, m1 = 0.04282	1001.24
298.15 K, m1 = 0.0486	1001.8
298.15 K, m1 = 0.05367	1002.29
298.15 K, m1 = 0.05892	1002.8
303.15 K, m1 = 0.02228	997.821
303.15 K, m1 = 0.02508	998.095
303.15 K, m1 = 0.02783	998.36
303.15 K, m1 = 0.0319	998.757
303.15 K, m1 = 0.03772	999.316
303.15 K, m1 = 0.0429	999.814
303.15 K, m1 = 0.04971	1000.47
303.15 K, m1 = 0.0554	1001.02
303.15 K, m1 = 0.06187	1001.64
313.15 K, m1 = 0.02228	994.368
313.15 K, m1 = 0.02508	994.635
313.15 K, m1 = 0.02783	994.898
313.15 K, m1 = 0.0319	995.29
313.15 K, m1 = 0.03772	995.842
313.15 K, m1 = 0.0429	996.336
313.15 K, m1 = 0.04971	996.987
313.15 K, m1 = 0.0554	997.526
313.15 K, m1 = 0.06187	998.14

NCC(=O)N[C@@H](CS)C(=O)NCC(=O)O [glycyl-L-cysteinylglycine] + O
Settings	mass density [kg/m3]
288.15 K, m1 = 0.01633	1000.63
288.15 K, m1 = 0.02087	1001.05
288.15 K, m1 = 0.02582	1001.51
288.15 K, m1 = 0.02984	1001.88
288.15 K, m1 = 0.03474	1002.34
288.15 K, m1 = 0.0395	1002.78
288.15 K, m1 = 0.04097	1002.91
288.15 K, m1 = 0.04442	1003.23
288.15 K, m1 = 0.04953	1003.71
303.15 K, m1 = 0.02103	997.568
303.15 K, m1 = 0.02497	997.92
303.15 K, m1 = 0.02788	998.184
303.15 K, m1 = 0.03046	998.417
303.15 K, m1 = 0.03394	998.731
303.15 K, m1 = 0.0374	999.043
303.15 K, m1 = 0.04008	999.279
303.15 K, m1 = 0.04358	999.593
303.15 K, m1 = 0.05003	1000.17
303.15 K, m1 = 0.05296	1000.43
313.15 K, m1 = 0.02094	994.099
313.15 K, m1 = 0.03109	995.001
313.15 K, m1 = 0.03597	995.437
313.15 K, m1 = 0.03941	995.739
313.15 K, m1 = 0.04508	996.242
313.15 K, m1 = 0.05002	996.672
313.15 K, m1 = 0.05218	996.867
313.15 K, m1 = 0.05751	997.331

NCC(=O)N[C@@H](Cc1cnc[nH]1)C(=O)NCC(=O)O [glycyl-L-histidylglycine] + O
Settings	mass density [kg/m3]
288.15 K, m1 = 0.004019	999.501
288.15 K, m1 = 0.00501	999.6
288.15 K, m1 = 0.006072	999.708
288.15 K, m1 = 0.007051	999.802
288.15 K, m1 = 0.008127	999.911
288.15 K, m1 = 0.00901	1000
288.15 K, m1 = 0.01012	1000.11
288.15 K, m1 = 0.01088	1000.19
288.15 K, m1 = 0.01205	1000.31
298.15 K, m1 = 0.004009	997.442
298.15 K, m1 = 0.007226	997.762
298.15 K, m1 = 0.008041	997.838
298.15 K, m1 = 0.00901	997.939
298.15 K, m1 = 0.01009	998.038
298.15 K, m1 = 0.01109	998.142
298.15 K, m1 = 0.01227	998.254
303.15 K, m1 = 0.00404	996.046
303.15 K, m1 = 0.00498	996.138
303.15 K, m1 = 0.006103	996.247
303.15 K, m1 = 0.00711	996.346
303.15 K, m1 = 0.007975	996.427
303.15 K, m1 = 0.01106	996.73
303.15 K, m1 = 0.01225	996.842
313.15 K, m1 = 0.005108	992.711
313.15 K, m1 = 0.006051	992.804
313.15 K, m1 = 0.006936	992.89
313.15 K, m1 = 0.0082	993.012
313.15 K, m1 = 0.01022	993.207
313.15 K, m1 = 0.01138	993.309
313.15 K, m1 = 0.01232	993.4
